Measurements taken from the C3SDB collision cross section collection.

conditions: [M+H-H2O]+; instrument: TW; calibrated with polyalanine and drug standards

SMILES	collision cross section (N2) [Å²]
CCCCCC(=O)Cc1cc(O)cc(O)c1C(=O)Oc1cc(CC(=O)CCCCC)c(C(=O)O)c(OC)c1 [ARTHONIOIC ACID]	231.7

same assay, conditions: [M+H]+; instrument: TW; calibrated with polyalanine and drug standards

SMILES	collision cross section (N2) [Å²]
C=C1C2CC[C@@]3(C)[C@H](c4ccoc4)OC(=O)C[C@]13O[C@H]1CC(=O)C(C)(C)[C@H](C(O)C(=O)OC)[C@@]21C (stereo partly specified) [6-HYDROXYANGOLENSIC ACID METHYL ESTER]	207.6
CN1[C@H]2CC(=O)C[C@@H]1C(O)C2 (stereo partly specified) [6-HYDROXYTROPINONE]	131.6
O=c1cc(-c2ccccc2)oc2cc(O)ccc12 [7-HYDROXYFLAVONE]	148.9
Oc1cccc2cccnc12 [8-HYDROXYQUINOLINE]	123.6
CC(=O)O[C@@H]1C[C@@]2(C)C(CC[C@@H]2C(C)=O)C2CCC3=CC(=O)CC[C@]3(C)C21 (stereo partly specified) [11a-ACETOXYPROGESTERONE]	190.6
CC(=O)[C@H]1CC[C@H]2[C@@H]3CCC4=CC(=O)CC[C@]4(C)[C@H]3C(OC(=O)CCC(=O)O)C[C@]12C (stereo partly drawn) [11alpha-HYDROXYPROGESTERONE HEMISUCCINATE]	201.8
NC(=O)c1ncn([C@@H]2O[C@H](CO)[C@@H](O)[C@H]2O)c1N [ACADESINE]	153
C[C@H]1O[C@H](O[C@H]2[C@H](O)[C@@H](O)[C@@H](O[C@H]3[C@H](O)[C@@H](O)C(O)O[C@@H]3CO)O[C@@H]2CO)[C@H](O)[C@@H](O)[C@@H]1N[C@H]1C=C(CO)[C@@H](O)[C@H](O)[C@H]1O (stereo partly specified) [ACARBOSE]	231
CC(=O)Nc1ccc(O)cc1 [ACETAMINOPHEN]	129.7
CC(=O)Nc1ccccc1 [ACETANILIDE]	125
CCCCC[C@H](CC(=O)NO)C(=O)N[C@H](C(=O)N1CCC[C@H]1CO)C(C)C [ACTINONIN]	194.1
CC(C)(C)NCC(O)c1ccc(O)c(CO)c1 (stereo unspecified) [ALBUTEROL]	158.4
COc1cc2nc(N(C)CCCNC(=O)C3CCCO3)nc(N)c2cc1OC (stereo unspecified) [ALFLUZOSIN]	193.9
COc1cc(OC)c2c(c1)OC(c1ccccc1)CC2=O (stereo unspecified) [ALPINETIN METHYL ETHER]	162.8
C=CCSCC1Nc2cc(Cl)c(S(N)(=O)=O)cc2S(=O)(=O)N1 (stereo unspecified) [ALTHIAZIDE]	181.5
C=CC[C@]1(O)CC[C@H]2[C@@H]3CCC4=CC(=O)CCC4=C3C=C[C@@]21C [ALTRENOGEST]	177
Nc1c2ccccc2nc2ccccc12 [AMINACRINE]	136.8
CC(CC(C(N)=O)(c1ccccc1)c1ccccc1)N(C)C (stereo unspecified) [AMINOPENTAMIDE]	169.6
Nc1nc(N)c2nc(CNc3ccc(C(=O)N[C@@H](CCC(=O)O)C(=O)O)cc3)cnc2n1 [AMINOPTERIN]	204.4
CCN(CC)Cc1cc(Nc2ccnc3cc(Cl)ccc23)ccc1O [AMODIAQUINE]	191.9
Cc1c(N)c(=O)n(-c2ccccc2)n1C [AMPYRONE]	142.6
N#C[C@H](O[C@@H]1O[C@H](CO[C@@H]2O[C@H](CO)[C@@H](O)[C@H](O)[C@H]2O)[C@@H](O)[C@H](O)[C@H]1O)c1ccccc1 [AMYGDALIN]	200.6
C[C@]12C=CC(=O)C=C1CC[C@@H]1[C@@H]2CC[C@]2(C)C(=O)CC[C@@H]12 [ANDROSTA-1,4-DIEN-3,17-DIONE]	168.4
COc1ccc(-c2cc(=O)c3c(O)cc(OC)cc3o2)cc1 [APIGENIN DIMETHYL ETHER]	163
O=c1cc(-c2ccc(O)cc2)oc2cc(O)cc(O)c12 [APIGENIN]	156
C=CCc1cc(OC)c2c(c1OC)OCO2 [APIOLE]	146.1
Nc1ccc([As](=O)(O)O)cc1 [ARSANILIC ACID]	133.2
C[N+]1([O-])C2CCC1CC(OC(=O)C(CO)c1ccccc1)C2 (stereo unspecified) [ATROPINE OXIDE]	172.4

SMILES	collision cross section (N2) [Å²]
CC[C@H]1OC(=O)[C@H](C)[C@@H](O[C@H]2C[C@@](C)(OC)[C@@H](O)[C@H](C)O2)[C@H](C)[C@@H](O[C@@H]2O[C@H](C)C[C@H](N(C)C)[C@H]2O)[C@](C)(O)C[C@@H](C)CN(C)[C@H](C)[C@@H](O)[C@]1(C)O [AZITHROMYCIN]	263.5
C[C@H]1[C@H](NC(=O)/C(=N\OC(C)(C)C(=O)O)c2csc(N)n2)C(=O)N1S(=O)(=O)O [AZTREONAM]	197.4
CCc1oc2ccccc2c1C(=O)c1cc(Br)c(O)c(Br)c1 [BENZBROMARONE]	176
CCOC(=O)c1ccc(N)cc1 [BENZOCAINE]	145.9
O=C(O)c1ccccc1 [BENZOIC ACID]	122.2
NS(=O)(=O)c1cc2c(cc1Cl)NC(CSCc1ccccc1)=NS2(=O)=O [BENZTHIAZIDE]	186.7
CCC(=O)OCC(=O)[C@@]1(OC(=O)CC)[C@@H](C)C[C@H]2[C@@H]3CCC4=CC(=O)C=C[C@]4(C)[C@@]3(F)[C@@H](O)C[C@@]21C [BETAMETHASONE 17,21-DIPROPIONATE]	218.1
CC(=O)Oc1ccc(C(c2ccc(OC(C)=O)cc2)c2ccccn2)cc1 [BISACODYL]	193.3
COc1cc2c(cc1O)C[C@H]1c3c(cc(O)c(OC)c3-2)CCN1C [BOLDINE]	179.2
CCN(CC)CCNC(=O)c1cc(Br)c(N)cc1OC [BROMOPRIDE]	173.6
O=C(CCCN1CCC(O)(c2ccc(Br)cc2)CC1)c1ccc(F)cc1 [BROMPERIDOL]	194.9
Oc1c(Br)cc(Br)c2cccnc12 [BROXYQUINOLINE]	137.7
CCCCOc1ccc(CC(=O)NO)cc1 [BUFEXAMAC]	161
COC(=O)C[C@H]1C2(C)CC34OC5(C)O[C@@]6([C@H](OC(C)=O)C(OC(C)=O)[C@]7(C)C(/C(=C(/O)C(C)C)C(=O)O[C@H]7c7ccoc7)[C@@]6(O5)[C@H](OC(C)=O)[C@@]3(O)C2OC(=O)C(C)C)[C@]14C (stereo partly specified) [BUSSEIN]	258.7
CCCCOC(=O)c1ccc(N)cc1 [BUTAMBEN]	159.4
CC[C@@]1(O)C(=O)OCc2c1cc1n(c2=O)Cc2cc3ccccc3nc2-1 [CAMPTOTHECIN]	181.9
COc1cc(C(=O)NCCCCCC(=O)O)cc(OC)c1OC [CAPOBENIC ACID]	176.9
COc1cc(CNC(=O)CCCC/C=C/C(C)C)ccc1O [CAPSAICIN]	181.6
COC(=O)C[C@H]1C(C)(C)C(=O)[C@@H]2CC3=C(CC[C@]4(C)C3=CC(=O)O[C@H]4c3ccoc3)[C@@]1(C)C2=O [CARAPIN-8(9)-ENE]	206.3
CCOC(=O)n1ccn(C)c1=S [CARBIMAZOLE]	134.4
CC1=C(C(=O)O)N2C(=O)[C@@H](NC(=O)[C@H](N)c3ccc(O)cc3)[C@H]2SC1 [CEFADROXIL]	183.1
CC(C)(O/N=C(\C(=O)N[C@@H]1C(=O)N2C(C(=O)[O-])=C(C[n+]3ccccc3)CS[C@H]12)c1csc(N)n1)C(=O)O [CEFTAZIDIME]	218.2
Nc1nc(/C(=C/CC(=O)O)C(=O)N[C@@H]2C(=O)N3C(C(=O)O)=CCS[C@H]23)cs1 [CEFTIBUTEN]	191.4
C/C=C(/C)C(=O)O[C@H]1CC[C@@]2(C)[C@@H]3CC[C@H]4[C@]5(O)C[C@H](O)[C@@]6(O)[C@@H](CN7C[C@@H](C)CC[C@H]7[C@@]6(C)O)[C@]5(O)C[C@@]42O[C@]13O [CEVADINE]	237.2
O=C1C(Cl)=C(Cl)C(=O)C(Cl)=C1Cl [CHLORANIL]	148.9
NC(=NCCCCCCN=C(N)/N=C(\N)Nc1ccc(Cl)cc1)/N=C(\N)Nc1ccc(Cl)cc1 [CHLORHEXIDINE]	221.3
CC(=O)O[C@]1(C(C)=O)CC[C@H]2[C@@H]3C=C(Cl)C4=CC(=O)CC[C@]4(C)[C@H]3CC[C@@]21C [CHLORMADINONE ACETATE]	197

same assay, conditions: [M+Na]+; instrument: TW; calibrated with polyalanine and drug standards

SMILES	collision cross section (N2) [Å²]
CC(=O)N[C@@H](CCC(=O)O)C(=O)O [ACETYLGLUTAMIC ACID]	141.7
CC(=O)N[C@@H](Cc1c[nH]c2ccccc12)C(N)=O [ACETYLTRYPTOPHANAMIDE]	159.3
CCCCCCCCCCCCCCCCC(C(=O)O)C(O)(CC(=O)O)C(=O)O (stereo unspecified) [AGARIC ACID]	213.1
O=C(O)CCCCCCCC(O)C(O)CCCCCCO (stereo unspecified) [ALEURETIC ACID]	175.9
C[C@@H]1CC[C@H]2[C@@H](C)C(=O)O[C@@H]3O[C@@]4(C)CC[C@@H]1[C@]32OO4 [ARTEMISININ]	168.1
C/C=C(\C)C(=O)O[C@H]1C[C@@H](OC(C)=O)[C@@]2(C(=O)OC)CO[C@H]3[C@@H](O)[C@@](C)([C@]45O[C@@]4(C)[C@H]4C[C@@H]5O[C@@H]5OC=C[C@@]54O)[C@H]4[C@]1(CO[C@]4(O)C(=O)OC)[C@@H]32 [AZADIRACHTIN]	241.4
CC(=O)Oc1cc(OC(C)=O)c2c(c1)O[C@H](c1ccc(OC(C)=O)c(OC(C)=O)c1)[C@@H](OC(C)=O)C2 [CATECHIN PENTAACETATE]	206.6
OC[C@H]1O[C@@H](O[C@H]2[C@H](O)[C@@H](O)[C@@H](O)O[C@@H]2CO)[C@H](O)[C@@H](O)[C@@H]1O [CELLOBIOSE (D[+])]	175.7

same assay, conditions: [M]+; instrument: TW; calibrated with polyalanine and drug standards

SMILES	collision cross section (N2) [Å²]
CCCCCCCCCCCC[N+](C)(C)Cc1ccccc1 [BENZALKONIUM CHLORIDE C12]	193
CCCCCCCCCCCCCCCC[N+](C)(C)Cc1ccccc1 [BENZALKONIUM CHLORIDE C16]	214.8
